Patent US9113629B2, “4-amino-6-(4-substituted-phenyl)-picolinates and 6-amino-2-(4-substituted-phenyl)-pyrimidine-4-carboxylates and their use as herbicides” (DOW AGROSCIENCES LLC, priority 2013, dated 2015)

Tests used:
[1] = tested on: ALOMY: black-grass (Alopecurus myosuroides); test: Post-emergent Test III, herbicidal activity in wheat and barley; type: in vivo
Procedure, shortened: (§1)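 Plants at the second to third true-leaf stage, grown in a greenhouse at about 18/17 °C with a 14 h photoperiod, were sprayed post-emergence at 187 L/ha with the high rate and ½× to 1/16× serial dilutions in an acetone/DMSO/crop-oil/surfactant carrier. Injury was rated visually at 21 d on a 0–100% scale, and GR20–GR90 were derived by probit analysis.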

[2] = tested on: TRZSS: wheat, including spring and winter (Triticum aestivum); test: as above; type: in vivo
Procedure, shortened: as §1

[3] = tested on: KCHSC: kochia (Kochia scoparia); test: as above; type: in vivo
Procedure, shortened: as §1

[4] = as above; type: in vivo, Lolium multiflorum, Lolium rigidum; settings: Lolium multiflorum, post-emergence, 504 h, read-out: Visual Growth Reduction (%) 21 Days After Application LOLSS
Procedure, shortened: as §1

[5] = tested on: APESV: bentgrass (Apera spica-venti); test: as above; type: in vivo
Procedure, shortened: as §1

[6] = tested on: LAMSS; test: as above; type: in vivo
Procedure, shortened: as §1

[7] = tested on: LOLSS: ryegrass including, Italian ryegrass (Lolium multiflorum), rigid ryegrass (Lolium rigidum), annual ryegrass (Lolium multiflorum subsp. Gaudini); test: as above; type: in vivo; settings: probit analysis, 21 days after application
Procedure, shortened: as §1

[8] = tested on: MATSS: scented mayweed (Matricaria chamomilla), pineappleweed (Matricaria matricarioides); test: as above; type: in vivo
Procedure, shortened: as §1

[9] = tested on: SETVI: green foxtail (Setaria viridis); test: as above; type: in vivo
Procedure, shortened: as §1

[10] = tested on: HORSS: barley, including spring and winter (Hordeum vulgare); test: as above; type: in vivo
Procedure, shortened: as §1

[11] = probit analysis, dose for growth reduction of 50 percent, 21 days after application
[12] = probit analysis, dose for growth reduction of 80 percent, 21 days after application
[13] = probit analysis, dose for growth reduction of 20 percent, 21 days after application, crop

COC(=O)c1nc(-c2ccc(Cl)c(F)c2)c(F)c(N)c1Cl [Compound 216]
pest or weed control at 35 g/ha ([1]; Alopecurus myosuroides, post-emergence, 504 h, 35 g ai/ha, read-out: Visual Growth Reduction (%) 21 Days After Application ALOMY): 45 to 59% | pest or weed control at 70 g/ha ([1]; Alopecurus myosuroides, post-emergence, 504 h, 70 g ai/ha, read-out: Visual Growth Reduction (%) 21 Days After Application ALOMY): 60 to 74% | pest or weed control at 140 g/ha ([1]; Alopecurus myosuroides, post-emergence, 504 h, 140 g ai/ha, read-out: Visual Growth Reduction (%) 21 Days After Application ALOMY): 75 to 84% | GR50 ALOMY [1, 11]: 54 g ai/ha | GR80 ALOMY [1, 12]: >140 g ai/ha | pest or weed control at 35 g/ha ([2]; Triticum aestivum, post-emergence, 504 h, 35 g ai/ha, read-out: Visual Growth Reduction (%) 21 Days After Application TRZSS): 75 to 84% | pest or weed control at 70 g/ha ([2]; Triticum aestivum, post-emergence, 504 h, 70 g ai/ha, read-out: Visual Growth Reduction (%) 21 Days After Application TRZSS): 85 to 94% | pest or weed control at 140 g/ha ([2]; Triticum aestivum, post-emergence, 504 h, 140 g ai/ha, read-out: Visual Growth Reduction (%) 21 Days After Application TRZSS): 85 to 94% | GR20 TRZSS [2, 13]: 1 g ai/ha | pest or weed control at 35 g/ha ([3]; Bassia scoparia, post-emergence, 504 h, 35 g ai/ha, read-out: Visual Growth Reduction (%) 21 Days After Application KCHSC): 95 to 100% | pest or weed control at 70 g/ha ([3]; Bassia scoparia, post-emergence, 504 h, 70 g ai/ha, read-out: Visual Growth Reduction (%) 21 Days After Application KCHSC): 95 to 100% | pest or weed control at 140 g/ha ([3]; Bassia scoparia, post-emergence, 504 h, 140 g ai/ha, read-out: Visual Growth Reduction (%) 21 Days After Application KCHSC): 95 to 100% | GR50 KCHSC [3, 11]: 1 g ai/ha | GR80 KCHSC [3, 12]: 2 g ai/ha | pest or weed control at 35 g/ha ([4]; 35 g ai/ha): 0 to 29% | pest or weed control at 70 g/ha ([4]; 70 g ai/ha): 30 to 44% | pest or weed control at 140 g/ha ([4]; 140 g ai/ha): 45 to 59% | pest or weed control at 35 g/ha ([5]; Apera spica-venti, post-emergence, 504 h, 35 g ai/ha, read-out: Visual Growth Reduction (%) 21 Days After Application APESV): 85 to 94% | pest or weed control at 70 g/ha ([5]; Apera spica-venti, post-emergence, 504 h, 70 g ai/ha, read-out: Visual Growth Reduction (%) 21 Days After Application APESV): 85 to 94% | pest or weed control at 140 g/ha ([5]; Apera spica-venti, post-emergence, 504 h, 140 g ai/ha, read-out: Visual Growth Reduction (%) 21 Days After Application APESV): 95 to 100% | GR50 APESV [5, 11]: 6 g ai/ha | GR80 APESV [5, 12]: 20 g ai/ha | pest or weed control at 35 g/ha ([6]; post-emergence, 504 h, 35 g ai/ha, read-out: Visual Growth Reduction (%) 21 Days After Application LAMSS): 95 to 100% | pest or weed control at 70 g/ha ([6]; post-emergence, 504 h, 70 g ai/ha, read-out: Visual Growth Reduction (%) 21 Days After Application LAMSS): 95 to 100% | pest or weed control at 140 g/ha ([6]; post-emergence, 504 h, 140 g ai/ha, read-out: Visual Growth Reduction (%) 21 Days After Application LAMSS): 95 to 100% | GR50 LAMSS [6, 11]: 1 g ai/ha | GR80 LAMSS [6, 12]: 1 g ai/ha | GR50 LOLSS ([7]; dose for growth reduction of 50 percent): 137 g ai/ha | GR80 LOLSS ([7]; dose for growth reduction of 80 percent): >140 g ai/ha | pest or weed control at 35 g/ha ([8]; Matricaria chamomilla, post-emergence, 504 h, 35 g ai/ha, read-out: Visual Growth Reduction (%) 21 Days After Application MATSS): 75 to 84% | pest or weed control at 70 g/ha ([8]; Matricaria chamomilla, post-emergence, 504 h, 70 g ai/ha, read-out: Visual Growth Reduction (%) 21 Days After Application MATSS): 75 to 84% | pest or weed control at 140 g/ha ([8]; Matricaria chamomilla, post-emergence, 504 h, 140 g ai/ha, read-out: Visual Growth Reduction (%) 21 Days After Application MATSS): 85 to 94% | GR50 MATSS [8, 11]: 10 g ai/ha | GR80 MATSS [8, 12]: 62 g ai/ha | pest or weed control at 35 g/ha ([9]; Setaria viridis, post-emergence, 504 h, 35 g ai/ha, read-out: Visual Growth Reduction (%) 21 Days After Application SETVI): 60 to 74% | pest or weed control at 70 g/ha ([9]; Setaria viridis, post-emergence, 504 h, 70 g ai/ha, read-out: Visual Growth Reduction (%) 21 Days After Application SETVI): 75 to 84% | pest or weed control at 140 g/ha ([9]; Setaria viridis, post-emergence, 504 h, 140 g ai/ha, read-out: Visual Growth Reduction (%) 21 Days After Application SETVI): 85 to 94% | GR50 SETVI [9, 11]: 20 g ai/ha | GR80 SETVI [9, 12]: 64 g ai/ha | pest or weed control at 35 g/ha ([10]; Hordeum vulgare, post-emergence, 504 h, 35 g ai/ha, read-out: Visual Growth Reduction (%) 21 Days After Application HORSS): 85 to 94% | pest or weed control at 70 g/ha ([10]; Hordeum vulgare, post-emergence, 504 h, 70 g ai/ha, read-out: Visual Growth Reduction (%) 21 Days After Application HORSS): 85 to 94% | pest or weed control at 140 g/ha ([10]; Hordeum vulgare, post-emergence, 504 h, 140 g ai/ha, read-out: Visual Growth Reduction (%) 21 Days After Application HORSS): 85 to 94% | GR20 HORSS [10, 13]: 1 g ai/ha
